This is an account of results in paper PMC5093622, “Structural characterisation of high affinity Siglec-2 (CD22) ligands in complex with whole Burkitt’s lymphoma (BL) Daudi cells by NMR spectroscopy” (Scientific Reports, 2016).

One series has as its system Siglec-2. Conditions: cited from earlier work.
For another series, the target named is T1, Siglec-2 Fc chimeras (Homo sapiens, UniProt P20273).
T1 construct: the three N-terminal Ig-domains of Siglec-2 were fused to the C-terminal human IgG1 Fc domain; made in house; host or cells: CHO-Lec1
As to the kind of experiment: Surface Plasmon Resonance (SPR) assay. The series is classed as binding. The method, then:
Recombinant Siglec-2 (CD22) Fc-chimeras were expressed in CHO-Lec1 and protein purification was performed as described. The recombinant Siglec-2-Fc chimera, in which the three N-terminal Ig-domains of Siglec-2 were fused to the C-terminal human IgG1 Fc domain, was expressed in CHO-Lec1 cells.
Siglec-Fc chimeras were either captured to anti-Fc antibody-derivatised dextran surface of a Reichert SR7500DC flow cell or directly immobilized by amide coupling. N-acetylneuraminic acid derivatives at various concentrations in PBS were passed over the flow cell at a flow rate of 20 μL/min followed by buffer for dissociation. Specific binding was determined by subtracting the signal obtained from the reference cell (ethanolamine derivatised dextran surface) from the sample cell derivatised with Siglec-2 Fc chimeras. The data were analysed and fitted using the software Scrubber (BioLogic). Corresponding sensorgrams for 7 and 8 are shown in Supplementary Figure 2a,b, respectively.

Series [1] has as its system T2, Siglec-2 expressed on intact Burkitt's lymphoma (BL) Daudi cells.
T2 construct: host or cells: BL Daudi cells
As to the kind of experiment: STD NMR binding to intact BL Daudi cells. The arrangement: species or system human. Conditions: for STD NMR signals in the presence of BL Daudi cells: 0.5 mM ligand, 5.0 × 10^5 BL Daudi cells, 283 K. An excerpt: Anti-human Siglec-1 (CD169)-FITC, (clone: 7-239); Siglec-3 (CD33)-FITC, (clone: AC104.3E3); Siglec-5 (CD170)-FITC (clone: 1A5); Siglec-7 (CD328)-VioBlue, (clone: REA214); Siglec-8-FITC, (clone: 7C9) and relevant isotype controls were purchased from Miltenyi Biotech (Bergisch Gladbach, Germany, UE). Mouse anti-human Siglec-2 (CD22) primary antibody (clone RFB4) and the relevant isotype control (clone 1E2.2) were purchased from Merck Group (Darmstadt, Germany, UE). The rat anti-mouse secondary antibody BV421 conjugated was purchased from BD Biosciences (San Jose, CA, USA). Rabbit anti-human Siglec-4 (Myelin Associated Glycoprotein, MAG) was purchased from LifeSpan BioSciences (Seattle, WA, USA). The Donkey anti-rabbit secondary antibody (Clone Poly4064)-BV421 conjugated was purchased from Biolegend (San Diego, CA, USA). Anti-human Siglec-5/Siglec-14-APC (Clone 194128), Siglec-6 (CD327)-APC (Clone 767329), Siglec-9-FITC (Clone 191240); Goat Siglec-10-PE Affinity Purified PAb, Goat Siglec-11-PE Affinity Purified PAb, Goat IgG-PE control, Siglec-16-APC (Clone 706022), and relevant isotypes were purchased from R&D Systems (Minneapolis, MN, USA). BL Daudi and HEK293T cells were incubated with the antibodies for one hour at 4 °C in PBS supplemented with 1% FCS (PBS-FBS) at a ratio of 1 μg of antibody per 1 × 10^6 cells. The cells were washed three times and then suspended in 1 mL of PBS-FBS buffer prior to flow cytometry analysis. Propidium iodide was used at a concentration of 10 ug/mL to differentiate viable from non-viable cells. Secondary antibodies were used according to the suppliers’ instructions. A CyAn ADP Flow Cytometer and Kaluza Flow Cytometry software were used for flow cytometric analysis (Beckman Coulter, Brea, CA, USA). For sorting the BL Daudi cells into Siglec-2^low and Siglec-2^high fractions, antibody staining was achieved as described above. RPMI-1640 medium containing 50% v/v FBS was used for collecting sorted cells to minimise cell damage. Cells were sorted into low and high expressing Siglec-2 groups based on their fluorescence intensity, using MoFlo XDP (Beckman Coulter, CA, USA).
(§1) STD NMR spectra were performed using a Bruker Advance 600 MHz spectrometer, equipped with a 5-mm TXI probe with triple axis gradients at 283 K. 5 × 10^5 BL Daudi and 1 × 10^6 HEK293T cells were washed three times with the optimised deuterated NMR buffer by centrifugation at 1,300 rpm, at room temperature for 5 min and resuspending in 200 μL. The ligand concentration was adjusted to 0.5 mM for all experiments. To determine the binding epitope of the ligands when bound to cells STDD (Saturation Transfer Double Difference) spectra were generated by subtracting STD NMR signals from the ligand-cell complex from the spectrum obtained in the absence of cells or protein.
Mild periodate treatment to disrupt cis-binding was performed following published procedures. BL Daudi cells were resuspended in phosphate buffer (pH 7.4) containing freshly dissolved 2 mM NaIO4 and incubated at 4 °C in the dark. After 30 min, the excess of periodate was quenched by adding 10 μL of 20% deuterated glycerol followed by immediate washing with deuterated buffer optimised for cell NMR experiments. The STD NMR on-resonance frequency was set to −1.00 ppm and the off-resonance to 300 ppm. To ensure the viability of the cells during NMR acquisition 256 scans were chosen resulting in a total acquisition time of 53 min.

The subject of series [2] is T3, Siglec-2 transiently expressed on HEK293T cells.
T3 construct: host or cells: HEK293T
As to the kind of experiment: STD NMR binding to untransfected and Siglec-2 transfected HEK293T cells. The arrangement: species or system human. Here is the method:
as §1
The full-length codon-optimized coding sequence of Siglec-2 (Uniprot entry P20273-1) cloned in plasmid pD2517 was purchased from DNA2.0 (Menlo Park, CA, USA). Plasmid amplification was performed by transformation into chemically competent E. coli NEB 5-alpha (Ipswich, MA, USA) followed by purification using a NucleoBond XTRA EF Plasmid Purification Kit (Machery Nagel, Duren, Germany, EU). […] Transfection efficiency was monitored by flow cytometry analysis 24 and 48 h post-transfection. […]

Details of series [3]: method as in PMID 10589082. The conditions noted are these: patients treated with Rituximab; cited from earlier work.

T1 sequence (P20273 with tags, fused parts or gaps limits assumed): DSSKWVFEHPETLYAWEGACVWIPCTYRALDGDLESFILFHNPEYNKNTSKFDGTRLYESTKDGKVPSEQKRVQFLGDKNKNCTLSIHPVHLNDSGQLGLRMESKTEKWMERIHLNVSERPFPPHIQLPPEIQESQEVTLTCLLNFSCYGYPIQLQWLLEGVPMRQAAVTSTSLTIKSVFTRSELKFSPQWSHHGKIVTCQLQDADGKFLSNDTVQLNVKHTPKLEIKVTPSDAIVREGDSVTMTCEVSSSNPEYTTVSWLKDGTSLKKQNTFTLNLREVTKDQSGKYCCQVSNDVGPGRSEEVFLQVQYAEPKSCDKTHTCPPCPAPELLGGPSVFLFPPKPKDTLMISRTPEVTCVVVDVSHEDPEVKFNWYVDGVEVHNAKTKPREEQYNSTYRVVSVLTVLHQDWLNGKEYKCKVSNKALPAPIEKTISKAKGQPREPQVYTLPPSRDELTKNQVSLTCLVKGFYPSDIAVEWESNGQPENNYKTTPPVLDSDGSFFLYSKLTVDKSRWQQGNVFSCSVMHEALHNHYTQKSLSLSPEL

On to `COC1(C(=O)O)CC(O)C(NC(C)=O)C(C(O)C(O)CO)O1` (stereo not drawn) [compound 1, Neu5Acα2Me], for which the IC50 in the series on Siglec-2 (read-out: IC50 value (binding potency for Siglec-2)) is 1400 µM.
Turning to `COC1(C(=O)O)CC(O)C(NC(C)=O)C(C(O)C(O)CNC(=O)c2ccc(-c3ccccc3)cc2)O1` (stereo not drawn) [compound 2, 9-BPC-Neu5Acα2Me, reference compound], at Siglec-2 Fc chimeras, the Kd worked out at 4.34 µM. The “increase of overall potency by a factor” value in the series with Siglec-2 (relative to Neu5Acα2Me (1)) is 224.
Regarding `COC1(C(=O)O)CC(NC(=O)c2cccc([N+](=O)[O-])c2)C(NC(C)=O)C(C(O)C(O)CNC(=O)c2ccc(-c3ccccc3)cc2)O1` (stereo not drawn) [compound 3, 9-biphenylcarboxamido-4-meta-nitrophenyl-carboxamido-Neu5Acα2Me], the Kd at Siglec-2 Fc chimeras was found to be 0.66 µM. Besides, the “STD NMR signals in the presence of BL Daudi cells” value (“STD NMR signals in the presence” below) in series [1] was “strong and significant signals”. For the same compound, the “increase in absolute STD NMR signal intensity, Siglec-2^high versus Siglec-2^low BL Daudi cells” value in series [1] (N-acetyl methyl protons, 5.0 × 10^5 sorted cells) came to 46%. Moreover, in series [1] (cells pre-treated with 2 mM NaIO4, versus untreated cells), the “change in STD NMR signal intensities with periodate pretreated BL Daudi cells” value is given as “significant increase”. Further, in series [2] (1.0 × 10^6 cells, 283 K), the “increase in STD NMR signal intensity, Siglec-2 transfected versus untransfected HEK293T cells” value was determined as 75 fold. Also, the “STD NMR signal intensity with non-transfected HEK293T cells” value in series [2] (1.0 × 10^6 untransfected cells) is “Very low signal intensity”. Further, the “fold higher affinity than 9-BPC-Neu5Acα2Me (2)” value in the series on Siglec-2 (relative to 2) is reported as 15 fold.
`CC(=O)N[C@@H]1[C@@H](NC(=O)c2cccc([N+](=O)[O-])c2)[C@H](O)[C@](OCc2cn(CC(=O)O)nn2)(C(=O)O)O[C@H]1[C@H](O)[C@H](O)CNC(=O)c1ccc(-c2ccccc2)cc1` [compound 7] gave a Kd at Siglec-2 Fc chimeras of 0.182 µM. In series [1], the “STD NMR signals in the presence” value is “strong STD NMR signals”.
At Siglec-2 Fc chimeras, `COc1cccc(C(=O)N[C@@H]2[C@@H](NC(C)=O)[C@H]([C@H](O)[C@H](O)CNC(=O)c3ccc(-c4ccccc4)cc3)O[C@@](OCc3cn(CC(=O)O)nn3)(C(=O)O)[C@H]2O)c1` [compound 8, 9-BPC-2-(4-carboxymethyl-[1,2,3]triazol-1-yl)-3-hydroxy-4-meta-methoxyphenyl-carboxamido-Neu5Acα2Me] showed a Kd of 0.175 µM.
Consider `OC[C@H]1O[C@@](CO)(O[C@H]2O[C@H](CO)[C@@H](O)[C@H](O)[C@H]2O)[C@@H](O)[C@@H]1O` [sucrose, reference compound], for which the “STD NMR signals in the presence” value in series [1] was “no STD NMR signals can be detected”.
Take Rituximab: anti-CD20 antibody: the “patients suffering from severe side effects” value in series [3] is 80%.

One may read the IC50 as the concentration at which inhibition is half-maximal. For orientation: Kd means the constant that tells how readily two partners part at equilibrium. A low value points to higher affinity.
